Assay results taken from ChEMBL document CHEMBL2034842, “Synthesis, anti-Candida activity, and cytotoxicity of new (4-(4-iodophenyl)thiazol-2-yl)hydrazine derivatives” (Eur J Med Chem, 2012).
Values after ≈ are worked out from the molar mass of the structure shown.

Columns and labels:
Type in all cases: functional
Proteus vulgaris = test: Antibacterial activity against Proteus vulgaris after 18 to 22 hrs by […]
Klebsiella aerogenes = test: Antibacterial activity against Enterobacter aerogenes after 18 to 22 hrs by […]
Pichia kudriavzevii = test: Antifungal activity against 3 strains of Candida krusei after 24 hrs by […]
Candida tropicalis = test: Antifungal activity against 4 strains of Candida tropicalis after 24 hrs by […]
Nakaseomyces glabratus = test: Antifungal activity against 4 strains of Candida glabrata after 24 hrs by […]
Streptococcus pyogenes = test: Antibacterial activity against Streptococcus pyogenes after 18 to 22 hrs by […]
Klebsiella pneumoniae = test: Antibacterial activity against Klebsiella pneumoniae after 18 to 22 hrs by […]
[Candida] sake = Antifungal activity against 2 strains of Candida sake after 24 hrs by […]; details: Fermentozyma sake
Staphylococcus warneri = test: Antibacterial activity against Staphylococcus warneri after 18 to 22 hrs by […]
Escherichia coli = test: Antibacterial activity against Escherichia coli after 18 to 22 hrs by […]
Candida parapsilosis = test: Antifungal activity against 4 strains of Candida parapsilosis after 24 hrs by […]; details: Lodderomyces parapsilosis
Enterococcus faecalis = test: Antibacterial activity against Enterococcus faecalis after 18 to 22 hrs by […]
Staphylococcus aureus = test: Antibacterial activity against Staphylococcus aureus after 18 to 22 hrs by […]
Candida albicans = test: Antifungal activity against 10 strains of Candida albicans after 24 hrs by […]

Structure (SMILES)	MIC (Proteus vulgaris) [mg/L]	MIC (Klebsiella aerogenes) [mg/L]	MIC (Pichia kudriavzevii) [mg/L]	MIC (Candida tropicalis) [mg/L]	MIC (Nakaseomyces glabratus) [mg/L]	MIC (Streptococcus pyogenes) [mg/L]	MIC (Klebsiella pneumoniae) [mg/L]	MIC ([Candida] sake) [mg/L]	MIC (Staphylococcus warneri) [mg/L]	MIC (Escherichia coli) [mg/L]	MIC (Candida parapsilosis) [mg/L]	MIC (Enterococcus faecalis) [mg/L]	MIC (Staphylococcus aureus) [mg/L]	MIC (Candida albicans) [mg/L]
CC1CCCC/C1=N\Nc1nc(-c2ccc(I)cc2)cs1 (stereo not given)	> 128	> 128	128 (≈ 311 µM)	0.5 (≈ 1.22 µM)	2 (≈ 4.86 µM)	8 (≈ 19.4 µM)	32 (≈ 77.8 µM)	128 (≈ 311 µM)	4 (≈ 9.72 µM)	16 (≈ 38.9 µM)	2 (≈ 4.86 µM)	8 (≈ 19.4 µM)	8 (≈ 19.4 µM)	0.25 (≈ 0.608 µM)
Ic1ccc(-c2csc(NN=C3CCCCC3)n2)cc1	> 128	> 128	2 (≈ 5.03 µM)	2 (≈ 5.03 µM)	2 (≈ 5.03 µM)	8 (≈ 20.1 µM)	> 128	16 (≈ 40.3 µM)	32 (≈ 80.5 µM)	> 128	2 (≈ 5.03 µM)	32 (≈ 80.5 µM)	32 (≈ 80.5 µM)	0.5 (≈ 1.26 µM)
CC1CCC/C(=N\Nc2nc(-c3ccc(I)cc3)cs2)C1 (stereo not given)	> 128	> 128	128 (≈ 311 µM)	2 (≈ 4.86 µM)	4 (≈ 9.72 µM)	4 (≈ 9.72 µM)	> 128	128 (≈ 311 µM)	4 (≈ 9.72 µM)	> 128	2 (≈ 4.86 µM)	8 (≈ 19.4 µM)	32 (≈ 77.8 µM)	2 (≈ 4.86 µM)
C/C(=N\Nc1nc(-c2ccc(I)cc2)cs1)c1ccc2ccccc2c1	16 (≈ 34.1 µM)	16 (≈ 34.1 µM)	64 (≈ 136 µM)	2 (≈ 4.26 µM)	4 (≈ 8.52 µM)	8 (≈ 17 µM)	16 (≈ 34.1 µM)	64 (≈ 136 µM)	4 (≈ 8.52 µM)	16 (≈ 34.1 µM)	2 (≈ 4.26 µM)	4 (≈ 8.52 µM)	8 (≈ 17 µM)	2 (≈ 4.26 µM)
Ic1ccc(-c2csc(NN=C3CCCCCC3)n2)cc1	16 (≈ 38.9 µM)	16 (≈ 38.9 µM)	64 (≈ 156 µM)	0.5 (≈ 1.22 µM)	2 (≈ 4.86 µM)	32 (≈ 77.8 µM)	> 128	64 (≈ 156 µM)	> 128	16 (≈ 38.9 µM)	2 (≈ 4.86 µM)	32 (≈ 77.8 µM)	> 128	0.25 (≈ 0.608 µM)

The next lines start with the values.

MIC (Proteus vulgaris) [mg/L]	MIC (Klebsiella aerogenes) [mg/L]	MIC (Pichia kudriavzevii) [mg/L]	MIC (Candida tropicalis) [mg/L]	MIC (Nakaseomyces glabratus) [mg/L]	MIC (Streptococcus pyogenes) [mg/L]	MIC (Klebsiella pneumoniae) [mg/L]	MIC ([Candida] sake) [mg/L]	MIC (Staphylococcus warneri) [mg/L]	MIC (Escherichia coli) [mg/L]	MIC (Candida parapsilosis) [mg/L]	MIC (Enterococcus faecalis) [mg/L]	MIC (Staphylococcus aureus) [mg/L]	MIC (Candida albicans) [mg/L]	Structure (SMILES)
> 128	> 128	128 (≈ 311 µM)	2 (≈ 4.86 µM)	4 (≈ 9.73 µM)	2 (≈ 4.86 µM)	> 128	128 (≈ 311 µM)	32 (≈ 77.8 µM)	> 128	2 (≈ 4.86 µM)	32 (≈ 77.8 µM)	32 (≈ 77.8 µM)	2 (≈ 4.86 µM)	Ic1ccc(-c2csc(N/N=C/c3cccs3)n2)cc1
32 (≈ 83.5 µM)	> 128	2 (≈ 5.22 µM)	0.5 (≈ 1.3 µM)	2 (≈ 5.22 µM)	8 (≈ 20.9 µM)	> 128	32 (≈ 83.5 µM)	8 (≈ 20.9 µM)	> 128	2 (≈ 5.22 µM)	8 (≈ 20.9 µM)	32 (≈ 83.5 µM)	2 (≈ 5.22 µM)	Ic1ccc(-c2csc(NN=C3CCCC3)n2)cc1
> 128	> 128	128 (≈ 315 µM)	0.5 (≈ 1.23 µM)	2 (≈ 4.92 µM)	2 (≈ 4.92 µM)	> 128	128 (≈ 315 µM)	32 (≈ 78.8 µM)	> 128	2 (≈ 4.92 µM)	2 (≈ 4.92 µM)	32 (≈ 78.8 µM)	0.25 (≈ 0.615 µM)	Ic1ccc(-c2csc(N/N=C/c3ccncc3)n2)cc1
> 128	16 (≈ 39.4 µM)	64 (≈ 158 µM)	2 (≈ 4.92 µM)	4 (≈ 9.85 µM)	32 (≈ 78.8 µM)	> 128	64 (≈ 158 µM)	> 128	16 (≈ 39.4 µM)	2 (≈ 4.92 µM)	32 (≈ 78.8 µM)	32 (≈ 78.8 µM)	2 (≈ 4.92 µM)	Ic1ccc(-c2csc(N/N=C/c3cccnc3)n2)cc1
16 (≈ 40.5 µM)	32 (≈ 81 µM)	64 (≈ 162 µM)	2 (≈ 5.06 µM)	4 (≈ 10.1 µM)	32 (≈ 81 µM)	32 (≈ 81 µM)	64 (≈ 162 µM)	> 128	32 (≈ 81 µM)	2 (≈ 5.06 µM)	32 (≈ 81 µM)	> 128	0.5 (≈ 1.27 µM)	Ic1ccc(-c2csc(N/N=C/c3ccco3)n2)cc1
